# Measured values taken from US11192900B2, “Substituted 1,6-dihydropyridinones and 1,2-dihydroisoquinolinones as bet inhibitors” (NUVATION BIO INC., priority 2018, dated 2021).
# How the values were obtained:
# [1] = test system: IEC-6 rat intestinal epithelial cell line; assay: IEC-6 cell viability, Protocol A (toxicity to non-cancerous cells); assay type: cell-based; settings: IEC-6, 3000 cells per well, 96 hrs
# Procedure: The effects of test compounds were also studied in the IEC-6 rat intestinal epithelial cell line to assess potential toxicity to non-cancerous cells. The cells were harvested during the logarithmic growth period and counted. In Protocol A, cells were seeded at a count of 3000 cells per well/100 μl in a 96-well plate. After seeding, cells were incubated at 37° C., 5% CO2 for 24 hr. Cells were treated with test compounds at 8 concentrations within a desired concentration range (e.g. 5 nM-10 μM) for generation of dose response curves by preparing serial dilutions of the test compound in DMSO which were further diluted with culture medium and then added to each well. The plate was further incubated for another 96 hrs in humidified incubator at 37° C. and 5% CO2. The assay was terminated by addition of resazurin (# R7017, Sigma). The plate was incubated for 4 hr at 37° C., 5% CO2 and fluorescence was measured using excitation and emission wavelengths of 535 and 590 nm, respectively. Cell viability data were plotted using GraphPad Prism (GraphPad Software, Inc., San Diego, Calif.). In addition, a nonlinear regression model with a sigmoidal dose response and variable slope within GraphPad Prism was used to calculate the IC50 value of individual test compounds. […]
# MV4-11 cells = assay: Cell viability assay after wash-off (FITC-annexin V / 7-AAD flow cytometry); assay type: cell-based, human; settings: MV4-11, 0.5 or 2 μM for 2 or 4 hr, total 48 hr
# Procedure: MV4-11 cells were incubated with compound (at a concentration of 0.5 or 2 μM) or mivebresib (at a concentration of 0.5 or 2 μM) for 2 or 4 hr before wash-off with culture medium and re-plated in fresh culture medium for a total of 48 hr. Cells were stained with FITC-annexin V and 7-AAD before flow cytometric analysis using a Stratedigm flow cytometer. Viable cells are negative for FITC-annexin V and 7-AAD.
# c-Myc = assay: Measurement of c-Myc suppression after washoff (Western blot); assay type: cell-based, human; settings: MV4-11, 2 μM for 2 hr, washed, further 6 hr
# Procedure: MV4-11 cells were incubated with 2 μM of JQ1, mivebresib or a test compound for 2 hr. The cells were then washed twice with fresh culture medium and further cultured for another 6 hr. Cells were extracted with SDS sample buffers and then subjected to Western blot analysis to measure c-Myc. Compounds 2, 3, 12, 17, 409, 411 and 412 were tested in these assays.
compound,measurement,setting,value
"C=CS(=O)(=O)Nc1ccc(Oc2ccc(F)cc2F)c(-c2cc(NC)c(=O)n(C)c2)c1 [Compound 3, N-(4-(2,4-difluorophenoxy)-3-(1-methyl-5-(methylamino)-6-oxo-1,6-dihydropyridin-3-yl)phenyl)ethenesulfonamide]",IC50,[1],339 nM
same,cell inhibition activity after transient exposure (viable cells after wash-off),MV4-11 cells,sustained cell inhibition activity
same,c-Myc suppression activity after washoff,c-Myc,sustained c-Myc suppression activity
